The supplement of paper PMC10307832

Legend:
Experiment in all cases: relative viability (nuclei count vs DMSO), 5 days (fraction); higher = more cells survive
[1] = test system: NCI-H441
Procedure, shortened: (§1)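 Each reported value is a median over duplicate plates. It expresses relative viability: treated-well nuclei count divided by vehicle-well nuclei count. Lung cancer cell lines in 1536-well plates were dosed by pin tool a day after seeding, alone with one drug or with a fixed anchor-drug dose plus five library-drug doses (not always all listed) in √10 steps, and nuclei were counted after 5 days.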

[2] = test system: NCI-H1734
Procedure, shortened: as §1

[3] = test system: ChaGo-K-1
Procedure, shortened: as §1

[4] = test system: NCI-H1755
Procedure, shortened: as §1

[5] = test system: NCI-H23
Procedure, shortened: as §1

[6] = test system: LOU-NH91
Procedure, shortened: as §1

[7] = test system: NCI-H1792
Procedure, shortened: as §1

[8] = test system: COR-L 105
Procedure, shortened: as §1

[9] = test system: EMC-BAC-2
Procedure, shortened: as §1

[10] = test system: EKVX
Procedure, shortened: as §1

[11] = test system: H3255
Procedure, shortened: as §1

[12] = test system: PC-3 [JPC-3]
Procedure, shortened: as §1

[13] = test system: NCI-H1975
Procedure, shortened: as §1

[14] = test system: NCI-H1563
Procedure, shortened: as §1

[15] = test system: NCI-H520
Procedure, shortened: as §1

[16] = test system: A-427
Procedure, shortened: as §1

[17] = test system: NCI-H1666
Procedure, shortened: as §1

[18] = test system: NCI-H596
Procedure, shortened: as §1

[19] = test system: HCC-366
Procedure, shortened: as §1

CC1(C)CCC(c2ccc(Cl)cc2)=C(CN2CCN(c3ccc(C(=O)NS(=O)(=O)c4ccc(N[C@H](CCN5CCOCC5)CSc5ccccc5)c(S(=O)(=O)C(F)(F)F)c4)cc3)CC2)C1 [Navitoclax] + CC(C)C[C@H](NC(=O)[C@H](Cc1ccccc1)NC(=O)c1cnccn1)B(O)O [Bortezomib] (partner 0.002 µM)
relative viability ([1]; first compound 0.005 µM): 0.349
relative viability ([1]; first compound 0.01581 µM): 0.737
relative viability ([1]; first compound 0.05 µM): 0.379
relative viability ([1]; first compound 0.1581 µM): 0.424
relative viability ([1]; first compound 0.5 µM): 0.496
relative viability ([2]; first compound 0.005 µM): 1.05
relative viability ([2]; first compound 0.01581 µM): 1.12
relative viability ([2]; first compound 0.1581 µM): 0.899
relative viability ([2]; first compound 0.5 µM): 1.02
relative viability ([3]; first compound 0.005 µM): 0.907
relative viability ([3]; first compound 0.01581 µM): 1.01
relative viability ([3]; first compound 0.05 µM): 0.91
relative viability ([3]; first compound 0.1581 µM): 0.959
relative viability ([3]; first compound 0.5 µM): 1.04
relative viability ([4]; first compound 0.005 µM): 0.929
relative viability ([4]; first compound 0.01581 µM): 1.01
relative viability ([4]; first compound 0.05 µM): 0.723
relative viability ([4]; first compound 0.1581 µM): 0.903
relative viability ([4]; first compound 0.5 µM): 0.924
relative viability ([5]; first compound 0.005 µM): 0.894
relative viability ([5]; first compound 0.01581 µM): 1.3
relative viability ([5]; first compound 0.05 µM): 1.24
relative viability ([5]; first compound 0.1581 µM): 1.02
relative viability ([5]; first compound 0.5 µM): 1.02
relative viability ([6]; first compound 0.005 µM): 0.418
relative viability ([6]; first compound 0.01581 µM): 0.485
relative viability ([6]; first compound 0.05 µM): 0.391
relative viability ([6]; first compound 0.1581 µM): 0.449
relative viability ([6]; first compound 0.5 µM): 0.339
relative viability ([7]; first compound 0.005 µM): 0.976
relative viability ([7]; first compound 0.01581 µM): 1.01
relative viability ([7]; first compound 0.05 µM): 0.995
relative viability ([7]; first compound 0.1581 µM): 0.964
relative viability ([7]; first compound 0.5 µM): 0.934
relative viability ([8]; first compound 0.005 µM): 0.977
relative viability ([8]; first compound 0.01581 µM): 1.31
relative viability ([8]; first compound 0.05 µM): 0.712
relative viability ([8]; first compound 0.1581 µM): 0.875
relative viability ([8]; first compound 0.5 µM): 0.584
relative viability ([9]; first compound 0.005 µM): 1.04
relative viability ([9]; first compound 0.01581 µM): 1.19
relative viability ([9]; first compound 0.05 µM): 1.01
relative viability ([9]; first compound 0.1581 µM): 1.03
relative viability ([9]; first compound 0.5 µM): 1.12
relative viability ([10]; first compound 0.005 µM): 1.01
relative viability ([10]; first compound 0.01581 µM): 1.01
relative viability ([10]; first compound 0.05 µM): 0.68
relative viability ([10]; first compound 0.1581 µM): 1.04
relative viability ([10]; first compound 0.5 µM): 0.963
relative viability ([11]; first compound 0.005 µM): 0.849
relative viability ([11]; first compound 0.01581 µM): 1.09
relative viability ([11]; first compound 0.05 µM): 0.836
relative viability ([11]; first compound 0.1581 µM): 0.692
relative viability ([11]; first compound 0.5 µM): 0.632
relative viability ([12]; first compound 0.005 µM): 0.757
relative viability ([12]; first compound 0.01581 µM): 0.784
relative viability ([12]; first compound 0.05 µM): 0.732
relative viability ([12]; first compound 0.1581 µM): 0.874
relative viability ([12]; first compound 0.5 µM): 0.822
relative viability ([13]; first compound 0.005 µM): 0.389
relative viability ([13]; first compound 0.01581 µM): 0.354
relative viability ([13]; first compound 0.05 µM): 0.381
relative viability ([13]; first compound 0.1581 µM): 0.258
relative viability ([13]; first compound 0.5 µM): 0.255
relative viability ([14]; first compound 0.005 µM): 0.83
relative viability ([14]; first compound 0.01581 µM): 1
relative viability ([14]; first compound 0.05 µM): 0.748
relative viability ([14]; first compound 0.1581 µM): 1.05
relative viability ([14]; first compound 0.5 µM): 1.24
relative viability ([15]; first compound 0.005 µM): 0.577
relative viability ([15]; first compound 0.01581 µM): 0.743
relative viability ([15]; first compound 0.05 µM): 0.869
relative viability ([15]; first compound 0.1581 µM): 0.6
relative viability ([15]; first compound 0.5 µM): 0.712
relative viability ([16]; first compound 0.005 µM): 1.06
relative viability ([16]; first compound 0.01581 µM): 1.04
relative viability ([16]; first compound 0.05 µM): 0.819
relative viability ([16]; first compound 0.1581 µM): 1.02
relative viability ([16]; first compound 0.5 µM): 0.949
relative viability ([17]; first compound 0.005 µM): 0.791
relative viability ([17]; first compound 0.01581 µM): 0.825
relative viability ([17]; first compound 0.05 µM): 0.764
relative viability ([17]; first compound 0.1581 µM): 0.782
relative viability ([17]; first compound 0.5 µM): 0.805
relative viability ([18]; first compound 0.005 µM): 1.22
relative viability ([18]; first compound 0.01581 µM): 0.81
relative viability ([18]; first compound 0.05 µM): 0.904
relative viability ([18]; first compound 0.1581 µM): 1.22
relative viability ([18]; first compound 0.5 µM): 0.914
relative viability ([19]; first compound 0.005 µM): 1
relative viability ([19]; first compound 0.01581 µM): 1.06
relative viability ([19]; first compound 0.05 µM): 0.539
relative viability ([19]; first compound 0.1581 µM): 0.974
relative viability ([19]; first compound 0.5 µM): 1.04
